# Laboratory results reported in ChEMBL document CHEMBL5370662, “Reactive Oxygen Species-Activated Metal-Free Carbon Monoxide Prodrugs for Targeted Cancer Treatment” (J Med Chem, 2023).
# Active and inactive are the calls of the source. The calls are words filed in the database; no cut-off is given here.
# Columns and labels:
# [1] = Prodrug conversion in PBS buffer assessed as carbon monoxide release by measuring half life at pH 7.4 at 25 uM by HPLC analysis; format: ADME; details: pH 7.4, 25 µM
# [2] = Prodrug conversion in PBS buffer assessed as carbon monoxide release by measuring half life at pH 7.4 at 25 uM in presence of H2O2 by HPLC analysis; format: ADME; details: pH 7.4, 25 µM
# [3] = system: 4T1; test: Antiproliferative activity against mouse 4T1 cells assessed as inhibition of cell growth measured after 24 hrs by Cell Counting Kit-8 assay; format: functional, cell-based; details: for IC50: 4T1, 24 h
# [4] = system: 4T1; test: Antitumor activity against mouse 4T1 cells implanted in Balb/c mouse assessed as fold change in tumor volume at 10 mg/kg, iv administered on day 0,3, and 5 measured after 24 days (reference value: 25.5); format: functional; details: for Activity: time 24.0 day; for fold change (FC): time 24 day
# [5] = system: Panc02; test: Antiproliferative activity against Panc02 cells assessed as inhibition of cell growth measured after 24 hrs by Cell Counting Kit-8 assay; format: functional, cell-based; details: Mus musculus
# [6] = system: 4T1; test: Antiproliferative activity against mouse 4T1 cells assessed as inhibition of cell growth upto 100 uM measured after 24 hrs by Cell Counting Kit-8 assay; format: functional, cell-based
# [7] = system: Panc02; test: Antiproliferative activity against Panc02 cells assessed as inhibition of cell growth upto 100 uM measured after 24 hrs by Cell Counting Kit-8 assay; format: functional, cell-based; details: Mus musculus
# [8] = Prodrug conversion in PBS buffer assessed as formation of 3',6'-dimethyl-[1,1':2',1''-terphenyl]-4'-carbonitrile by measuring half life at pH 7.4 at 25 uM measured after 24 hrs in presence of H2O2 by HPLC analysis; format: ADME; details: pH 7.4, 24 h
# [9] = Prodrug conversion in PBS buffer assessed as formation of oxidized intermediate by measuring half life at pH 7.4 at 25 uM measured after 24 hrs in presence of H2O2 by HPLC analysis; format: ADME; details: pH 7.4, 24 h
# [10] = Prodrug conversion in Balb/c mouse implanted with mouse 4T1 cells assessed as carbon monoxide release in tumor by measuring red fluorescence at 10 mg/kg, iv incubated for 6 hrs followed by 1-Ac probe addition by hoechst dye based confocal laser scanning microscopic analysis; format: ADME, organism-based; details: in vivo
# [11] = Toxicity in Balb/c mouse implanted with mouse 4T1 cells assessed as change in body weight at 10 mg/kg, iv administered on day 0,3, and 5 measured after 24 days; format: organism-based; details: in vivo, 576 h, time 24 day
# [12] = Toxicity in Balb/c mouse implanted with mouse 4T1 cells assessed as increase in survival rate at 10 mg/kg, iv administered on day 0,3, and 5 measured after 24 days (reference value: 27 days); format: organism-based; details: in vivo, 576 h, time 24 day
# [13] = Prodrug conversion in 1-Ac probed mouse 4T1 cells assessed as carbon monoxide release by measuring red fluorescence at 20 uM incubated for 6 hrs by hoechst dye based confocal laser scanning microscopic analysis; format: ADME, cell-based; details: 4t1, 6 h
structure (smiles),measurement,setting,value
Cc1ccc(S[C@H]2C(C=O)[C@]3(C)C(=O)[C@]2(C)C(c2ccccc2)=C3c2ccccc2)cc1 (stereo partly specified),t1/2,[1],3 h
same,t1/2,[2],2.2 h
Cc1cc(C=O)c(C)c(-c2ccccc2)c1-c1ccccc1,Activity,[3],inactive
same,Activity,[4],inactive
same,Activity,[5],inactive
Cc1cc(C#N)c(C)c(-c2ccccc2)c1-c1ccccc1,Activity,[4],inactive
same,Activity,[6],inactive
same,Activity,[7],inactive
Cc1ccc(S[C@H]2C(C#N)[C@]3(C)C(=O)[C@]2(C)C(c2ccccc2)=C3c2ccccc2)cc1 (stereo partly specified),t1/2,[8],12 h
same,t1/2,[9],2 h
CCCCCS[C@H]1C(C=O)[C@]2(C)C(=O)[C@]1(C)C(c1ccccc1)=C2c1ccccc1 (stereo partly specified),Drug metabolism,[10],Metabolite_Detected
same,IC50,[3],29.4 µM
same,fold change (FC),[4],9.4
same,Activity,[11],Non-Toxic
same,IC50,"[5]; Panc02, 24 h",72.5 µM
same,Survival,[12],42 days
same,t1/2,[1],81.6 h
same,t1/2,[2],3.4 h
same,Drug metabolism,[13],Metabolite_Detected
CCCCCS[C@H]1C(C(=O)OC)[C@]2(C)C(=O)[C@]1(C)C(c1ccccc1)=C2c1ccccc1 (stereo partly specified),Drug metabolism,[10],Metabolite_Notdetected
same,Activity,[3],inactive
same,Activity,[4],inactive
same,Activity,[5],inactive
same,Drug metabolism,[13],Metabolite_Notdetected
CCCCCS[C@H]1C(C#N)[C@]2(C)C(=O)[C@]1(C)C(c1ccccc1)=C2c1ccccc1 (stereo partly specified),t1/2,[8],12 h
same,Drug metabolism,[10],Metabolite_Detected
same,IC50,[3],> 100 µM
same,fold change (FC),[4],16.5
same,t1/2,[9],2 h
same,Activity,[7],inactive
same,Drug metabolism,[13],Metabolite_Detected
